Measured values published in ChEMBL document CHEMBL1158607, “2' biaryl amides as novel and subtype selective M1 agonists. Part I: Identification, synthesis, and initial SAR” (Bioorg Med Chem Lett, 2010).
Calls of active or inactive are those of the source. No cut-off for these calls is given here.

Key:
[1] = molecular target: T1, Muscarinic acetylcholine receptor M1 (Homo sapiens, UniProt P11229); assay: Agonist activity at human muscarinic M1 receptor expressed in CHO cells assessed as effect on acetylcholine-induced intracellular calcium level by FLIPR assay; assay type: functional, cell-based
T1 sequence (P11229 whole entry): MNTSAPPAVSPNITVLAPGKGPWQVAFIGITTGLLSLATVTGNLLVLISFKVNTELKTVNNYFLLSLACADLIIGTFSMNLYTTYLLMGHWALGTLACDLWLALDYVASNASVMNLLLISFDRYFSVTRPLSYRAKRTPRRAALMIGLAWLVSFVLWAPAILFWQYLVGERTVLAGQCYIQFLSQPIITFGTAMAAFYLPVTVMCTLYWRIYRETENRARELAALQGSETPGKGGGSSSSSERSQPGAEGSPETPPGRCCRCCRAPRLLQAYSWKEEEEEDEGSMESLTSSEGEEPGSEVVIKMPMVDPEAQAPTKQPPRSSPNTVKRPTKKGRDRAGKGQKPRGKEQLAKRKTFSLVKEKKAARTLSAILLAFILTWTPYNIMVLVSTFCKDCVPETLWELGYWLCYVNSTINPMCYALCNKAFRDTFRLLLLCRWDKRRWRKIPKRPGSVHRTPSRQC

[2] = molecular target: T2, Muscarinic acetylcholine receptor M1 (Homo sapiens) (UniProt P11229); assay: Intrinsic activity at human muscarinic M1 receptor expressed in CHO cells assessed as effect on acetylcholine-induced intracellular calcium level by FLIPR assay relative to acetylcholine; assay type: functional, cell-based
T2 sequence (whole entry): T1 sequence (P11229 whole entry)

[3] = molecular target: T3, Muscarinic acetylcholine receptor M5 (Homo sapiens, UniProt P08912); assay: Inhibition of human muscarinic M5 receptor expressed in CHO cells; assay type: cell-based
T3 sequence (P08912 whole entry): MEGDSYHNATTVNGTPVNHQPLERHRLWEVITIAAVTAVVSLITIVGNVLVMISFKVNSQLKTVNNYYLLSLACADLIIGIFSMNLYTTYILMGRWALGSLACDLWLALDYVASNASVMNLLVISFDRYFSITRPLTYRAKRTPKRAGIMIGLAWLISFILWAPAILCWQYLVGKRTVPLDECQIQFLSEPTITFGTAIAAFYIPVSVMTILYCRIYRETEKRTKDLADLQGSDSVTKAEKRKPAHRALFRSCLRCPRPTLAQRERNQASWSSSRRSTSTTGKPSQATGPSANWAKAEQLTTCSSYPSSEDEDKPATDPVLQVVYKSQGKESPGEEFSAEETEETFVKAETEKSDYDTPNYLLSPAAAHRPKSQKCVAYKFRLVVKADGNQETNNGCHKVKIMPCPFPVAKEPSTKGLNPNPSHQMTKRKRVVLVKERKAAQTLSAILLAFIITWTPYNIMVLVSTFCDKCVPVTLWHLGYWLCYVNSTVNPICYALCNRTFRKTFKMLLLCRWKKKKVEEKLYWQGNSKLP

[4] = molecular target: T4, Muscarinic acetylcholine receptor M2 (Homo sapiens, UniProt P08172); assay: Inhibition of human muscarinic M2 receptor expressed in CHO cells; assay type: cell-based
T4 sequence (P08172 whole entry): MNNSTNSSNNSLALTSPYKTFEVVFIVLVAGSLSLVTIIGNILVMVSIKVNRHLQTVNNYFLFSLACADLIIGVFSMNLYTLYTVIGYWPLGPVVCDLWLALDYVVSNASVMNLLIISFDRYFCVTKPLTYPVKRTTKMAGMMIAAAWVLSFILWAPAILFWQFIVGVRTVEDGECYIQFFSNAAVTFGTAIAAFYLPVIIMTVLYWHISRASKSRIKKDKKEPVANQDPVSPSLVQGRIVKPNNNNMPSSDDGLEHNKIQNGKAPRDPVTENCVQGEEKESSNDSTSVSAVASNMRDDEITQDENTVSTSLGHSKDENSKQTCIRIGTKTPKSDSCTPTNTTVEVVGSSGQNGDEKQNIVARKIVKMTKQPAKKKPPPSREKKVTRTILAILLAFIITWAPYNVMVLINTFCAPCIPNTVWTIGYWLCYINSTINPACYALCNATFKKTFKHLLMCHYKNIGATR

[5] = molecular target: T5, Muscarinic acetylcholine receptor M4 (Homo sapiens, UniProt P08173); assay: Inhibition of human muscarinic M4 receptor expressed in CHO cells; assay type: cell-based
T5 sequence (P08173 whole entry): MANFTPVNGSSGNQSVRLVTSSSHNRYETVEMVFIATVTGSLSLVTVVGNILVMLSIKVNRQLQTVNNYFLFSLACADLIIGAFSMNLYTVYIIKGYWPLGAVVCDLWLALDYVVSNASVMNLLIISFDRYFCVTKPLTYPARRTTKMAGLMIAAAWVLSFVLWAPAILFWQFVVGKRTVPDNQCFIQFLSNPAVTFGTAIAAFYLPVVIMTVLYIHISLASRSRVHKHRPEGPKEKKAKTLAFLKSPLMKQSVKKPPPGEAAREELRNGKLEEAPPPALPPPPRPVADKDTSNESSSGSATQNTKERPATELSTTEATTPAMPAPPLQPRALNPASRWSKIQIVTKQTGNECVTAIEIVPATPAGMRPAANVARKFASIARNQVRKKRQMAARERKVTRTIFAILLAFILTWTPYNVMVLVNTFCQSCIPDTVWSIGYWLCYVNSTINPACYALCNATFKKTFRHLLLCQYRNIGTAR

[6] = molecular target: T6, Muscarinic acetylcholine receptor M3 (Homo sapiens, UniProt P20309); assay: Agonist activity at human muscarinic M3 receptor expressed in CHO cells assessed as effect on acetylcholine-induced intracellular calcium level by FLIPR assay; assay type: functional, cell-based
Target sequence in this assay (P20309 whole entry, looked up): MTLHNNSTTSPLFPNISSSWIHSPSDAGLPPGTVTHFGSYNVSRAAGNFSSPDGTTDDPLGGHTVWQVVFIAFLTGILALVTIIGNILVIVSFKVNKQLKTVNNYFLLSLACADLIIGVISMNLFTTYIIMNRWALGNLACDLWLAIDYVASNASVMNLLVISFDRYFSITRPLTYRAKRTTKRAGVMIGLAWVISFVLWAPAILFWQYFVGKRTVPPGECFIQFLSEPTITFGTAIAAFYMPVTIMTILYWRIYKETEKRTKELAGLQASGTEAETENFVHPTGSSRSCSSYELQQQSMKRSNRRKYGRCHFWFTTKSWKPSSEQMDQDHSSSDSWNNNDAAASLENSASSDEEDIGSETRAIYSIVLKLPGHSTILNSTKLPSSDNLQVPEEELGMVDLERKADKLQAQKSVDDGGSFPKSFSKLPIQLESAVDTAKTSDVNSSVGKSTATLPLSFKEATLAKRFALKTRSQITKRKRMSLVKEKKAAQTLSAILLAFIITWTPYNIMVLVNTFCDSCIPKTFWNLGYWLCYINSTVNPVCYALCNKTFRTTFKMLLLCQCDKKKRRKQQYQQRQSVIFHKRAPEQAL

[7] = molecular target: T7, Muscarinic acetylcholine receptor M5 (Homo sapiens) (UniProt P08912); assay: Agonist activity at human muscarinic M5 receptor expressed in CHO cells assessed as effect on acetylcholine-induced intracellular calcium level by FLIPR assay; assay type: functional, cell-based
T7 sequence (whole entry): T3 sequence (P08912 whole entry)

[8] = molecular target: T6, Muscarinic acetylcholine receptor M3; assay: Inhibition of human muscarinic M3 receptor expressed in CHO cells; assay type: cell-based
Target sequence in this assay (P20309 whole entry): as the sequence (P20309 whole entry, looked up) above

[9] = molecular target: T8, Muscarinic acetylcholine receptor M2 (Homo sapiens) (UniProt P08172); assay: Agonist activity at human muscarinic M2 receptor expressed in CHO cells assessed as effect on acetylcholine-induced intracellular calcium level by FLIPR assay; assay type: functional, cell-based
T8 sequence (whole entry): T4 sequence (P08172 whole entry)

[10] = molecular target: T9, Muscarinic acetylcholine receptor M4 (Homo sapiens) (UniProt P08173); assay: Agonist activity at human muscarinic M4 receptor expressed in CHO cells assessed as effect on acetylcholine-induced intracellular calcium level by FLIPR assay; assay type: functional, cell-based
T9 sequence (whole entry): T5 sequence (P08173 whole entry)

Row | EC50 [1] [µM] | SMILES | other results
1 | > 10 | CN(C)C(=O)c1cccc(-c2ccccc2C(=O)NCC2CCNCC2)c1 | 
2 | > 10 | Cc1ccc(-c2ccccc2C(=O)NCC2CCNCC2)cc1 | 
3 | > 10 | Cc1c(Cl)cccc1-c1ccccc1C(=O)NCC1CCNCC1 | Intrinsic activity [2]: 5%
4 | > 10 | O=C(O)c1cccc(-c2ccccc2C(=O)NCC2CCNCC2)c1 | 
5 | > 10 | O=C(NCC1CCNCC1)c1ccccc1-c1cccc(F)c1 | 
6 | > 10 | CC1CC(CNC(=O)c2ccccc2-c2cccc(Cl)c2)CCN1 (stereo not drawn) | Intrinsic activity [2]: 28%
7 | > 10 | O=C(NCC1CCNCC1)c1ccccc1-c1cccs1 | 
8 | > 10 | COc1ccccc1-c1ccccc1C(=O)NCC1CCNCC1 | 
9 | > 10 | COCc1cccc(-c2ccccc2C(=O)NCC2CCNCC2)c1 | 
10 | > 10 | N#Cc1cccc(-c2ccccc2C(=O)NCC2CCNCC2)c1 | 
11 | > 10 | O=C(NCC1CCNCC1)c1ccccc1-c1ccncc1 | 
12 | > 10 | O=C(NCC1CCNCC1)c1ccccc1-c1ccc(C(F)(F)F)cc1 | 
13 | > 10 | O=C(NCC1CCNCC1)c1ccccc1-c1cccc(-c2ccccc2)c1 | 
14 | > 10 | N[C@H]1CC[C@H](CNC(=O)c2ccccc2-c2cccc(Cl)c2)CC1 | 
15 | 0.0631 | O=C(NCC1CCNCC1)c1ccccc1-c1cccc(Cl)c1 | IC50 [3]: > 10 µM; IC50 [4]: 7.94 µM; Intrinsic activity [2]: 86%; IC50 [5]: 5.01 µM; Activity [6]: inactive; Activity [7]: inactive; IC50 [8]: 3.98 µM; Activity [9]: inactive; Activity [10]: inactive
16 | > 10 | O=C(NCC1CCNCC1)c1ccccc1-c1ccsc1 | 
17 | > 10 | O=C(NCC1CCNCC1)c1ccccc1-c1cccc(OC(F)(F)F)c1 | 
18 | > 10 | NC(=O)c1cccc(-c2ccccc2C(=O)NCC2CCNCC2)c1 | 
19 | > 10 | CS(=O)(=O)c1cccc(-c2ccccc2C(=O)NCC2CCNCC2)c1 | 

More lines, now with the values behind:

Row | SMILES | EC50 [1] [µM] | other results
20 | O=C(NC1CCNC1)c1ccccc1-c1nc(Cl)cs1 (stereo not drawn) | > 10 | 
21 | O=C(NCC1CCCNC1)c1ccccc1-c1nc(Cl)cs1 (stereo not drawn) | > 10 | 
22 | O=C(NCC1CNCCO1)c1ccccc1-c1nc(Cl)cs1 (stereo not drawn) | > 10 | 
23 | O=C(NCC1CCNCC1)c1ccccc1-c1cccc2ccccc12 | > 10 | 
24 | CC1(C)CNCCC1CNC(=O)c1cc(Cl)ccc1-c1cccc(Cl)c1 (stereo not drawn) | > 10 | 
25 | O=C(NCC12CCN(CC1)CC2)c1ccccc1-c1nc(Cl)cs1 | 0.251 | Intrinsic activity [2]: 63%
26 | O=C(NCC12CCN(CC1)C2)c1ccccc1-c1cccc(Cl)c1 | > 10 | 
27 | O=C(NCC1CCNC1)c1ccccc1-c1nc(Cl)cs1 (stereo not drawn) | > 10 | 
28 | O=C(NC1CCCCNC1)c1ccccc1-c1nc(Cl)cs1 (stereo not drawn) | > 10 | 
29 | O=C(NCC1CCN2CCCC1C2)c1ccccc1-c1cccc(Cl)c1 (stereo not drawn) | > 10 | 
30 | O=C(NCC1CCNCC1)c1ccccc1-c1nc(Cl)cs1 |  | Intrinsic activity [2]: 84%; Activity [6]: inactive; Activity [7]: inactive; Activity [9]: inactive; Activity [10]: inactive
31 | O=C(NCC12CCN(CC1)CC2)c1ccccc1-c1cccc(Cl)c1 | > 10 | 
32 | O=C(NCC1CCCN1)c1ccccc1-c1nc(Cl)cs1 (stereo not drawn) | > 10 | 
